{"source": "paper PMC8116058", "about": "“De novo macrocyclic peptides dissect energy coupling of a heterodimeric ABC transporter by multimode allosteric inhibition” (eLife, 2021)", "key": {"[1]": {"test_system": "TmrAB in liposomes", "test": "Filter-based transport assay, inhibition of C4F translocation", "format": "biochemical, Thermus thermophilus", "conditions": "C4F 3 µM, CP^F 1 µM, 15 min 45°C; for Transported C4F peptide: TmrAB 0.4 µM", "text": "In order to investigate the functional impact of CPs, we examined the effect of the CPs on ATP hydrolysis and substrate transport of TmrAB (Figure 3A). We reconstituted TmrAB in liposomes and first assayed the ATPase activity. […] We next set out to investigate peptide transport by TmrAB using a filter-based transport assay. To investigate whether CPs are recognized as substrates by TmrAB, we added fluorescein-labeled CP^Fs and examined ATP-dependent translocation. In contrast to the linear substrate peptide C4F, none of the CP^Fs were transported by TmrAB (Figure 3C). Next, we examined ATP-dependent transport of C4F peptides in the presence and absence of the different CPs.\nFigure 3. CP^Fs are potent inhibitors of ATP turnover and substrate transport. (A) Experimental scheme of ATP hydrolysis and peptide transport by TmrAB. (B) CP^Fs inhibit ATP hydrolysis. TmrAB in liposomes (100 nM) was incubated with ATP (2 mM, traced with [γ^32P]-ATP), and MgCl2 (5 mM) in the presence and absence of CP^Fs (1 µM) for 10 min at 45°C. Autohydrolysis was determined in the absence of TmrAB, and background turnover was conducted in the presence of EDTA (10 mM). Release of [γ^32P] was quantified by thin layer chromatography. (C) CP^Fs are not transported by TmrAB. TmrAB (0.4 µM) reconstituted in liposomes was incubated with C4F peptide (3 µM) or CP^Fs (1 µM) in the presence of ATP/ADP (3 mM) and MgCl2 (5 mM) for 5 min at 45°C. Since CP^Fs were dissolved in maximal 0.5% (v/v) of DMSO, C4F plus 0.5% DMSO served as control. Proteoliposomes were washed on filter plates, and transported peptides were quantified at λex/em = 485/520 nm. (D) Inhibition of substrate translocation. TmrAB in liposomes (0.4 µM) were incubated with C4F peptide (3 µM), ATP/ADP (3 mM), and MgCl2 (5 mM) in the presence and absence of CP^Fs (1 µM) for 15 min at 45°C. Transported peptides were quantified as described in (C). In (B–C), mean values ± SD (n = 3) are shown. Figure 3—source data 1. Source data for Figure 3.\nTmrAB in liposomes (0.4 µM) were incubated with ATP/ADP (3 mM), MgCl2 (5 mM), C4F peptide (3 µM), and CP^Fs (1 µM) for 15 min at 45°C. […] Proteoliposomes were solubilized by adding SDS (1% [v/v]) in transport buffer for 10 min at 20°C. Transported peptides were quantified at λex/em = 485/520 nm using a microplate reader (CLARIOstar, BMG LABTECH)."}, "[2]": {"test_system": "TmrA^EQB", "test": "Nucleotide occlusion, catalytically reduced variant", "format": "biochemical, Thermus thermophilus", "conditions": "CP^F 4 µM; 5 min 45°C", "method": "Figure 5. […] (A, B) CP6^F (A) or CP13^F (B, 50 nM each) were incubated with increasing concentrations of detergent-solubilized inward-facing TmrAB (in the absence of Mg-ATP) or outward-facing TmrA^EQB, which was trapped with Mg-ATP (1 mM) for 5 min at 45°C as described ([Hofmann et al., 2019]; [Stefan et al., 2020]). Immediately after, the fluorescence anisotropy was assayed at λex/em = 485/520 nm. The difference in fluorescence polarization was normalized to free and fully bound CP^F. Data were fitted by a one-site binding model. […] TmrAB (2 µM each) were mixed with CP^Fs (4 µM), ATP (1 mM, traced with [α^32P]-ATP), and MgCl2 (5 mM) for 5 min at 4°C or 45°C. Cold ATP (10 mM) was added, and freely exchangeable nucleotides were removed by rapid gel filtration. Occluded nucleotides were analyzed by thin layer chromatography and autoradiography. Representative radiograms for independent triplicates are shown. (D) Stably occluded nucleotides, [α^32P]-ATP and [α^32P]-ADP, were quantified by autoradiography. Data were normalized to the vanadate-trapped state. In (A, B, D), mean values ± SD (n = 3) are shown. Figure 5—source data 1. Source Data for Figure 5. Figure 5—figure supplement 1. […] (A) CP^Fs (50 nM each) were incubated with increasing concentrations of detergent-solubilized IF TmrAB in the inward-facing (IF) conformation (absence of Mg-ATP) or TmrA^EQB populated in the outward-facing (OF) conformation, which was trapped in the OF conformation by Mg-ATP (1 mM) after 5 min incubation at 45°C. The difference in fluorescence polarization was normalized to unbound (0%) and 100% bound CP^F. Data were fitted by a one-site binding model. Fluorescence anisotropy was recorded at λex/em = 485/520 nm. […] TmrA^EQB (2 µM) were incubated in the absence and presence of CP^Fs (4 µM each), ATP (1 mM, traced with [α^32P]-ATP), and MgCl2 (5 mM) for 5 min at 4°C or 45°C. Cold ATP (10 mM) was added, and free nucleotides were removed by rapid gel filtration. Occluded nucleotides were analyzed by thin layer chromatography and autoradiography. Representative radiograms for independent triplicates are shown. […] Figure 5—figure supplement 1—source data 1.\nWe also examined the impact of CP^Fs on the IF-to-OF transition of wild-type TmrAB induced by ATP binding through nucleotide occlusion (stable trapping) as the readout. We induced the IF-to-OF switch with radiotraced [α^32P]-ATP for 5 min at 45°C in the presence and absence of CPs and removed unbound nucleotides by rapid gel filtration. Subsequently, the occluded nucleotides were identified and quantified by thin layer chromatography and autoradiography (Figure 5C, D).\nDetergent-solubilized TmrAB (2 µM) were incubated with ATP (1 mM) traced with [α^32P]-ATP (Hartmann Analytic), MgCl2 (5 mM), CP^Fs (4 µM), or orthovanadate (1 mM) for 5 min at 45°C. […]"}, "[3]": {"conditions": "ADP 3 mM (background), without CP 0.01"}}, "note": "Positions of bridges follow the written chain, without caps; N, C: chain ends. Non-standard residues stand in square brackets, D forms with d. Residues, ends and D or L forms follow the SMILES beside them. *: point of attachment. 5FAM = O=C1OC2(c3ccc(O)cc3Oc3cc(O)ccc32)c2ccc(C(=O)*)cc21; βAla = NCCC(=O)O", "data": [{"smiles": "CC[C@H](C)[C@@H]1NC(=O)[C@H]([C@@H](C)O)NC(=O)[C@H](CC(C)C)NC(=O)[C@H](Cc2c[nH]c3ccccc23)NC(=O)[C@H](Cc2ccccc2)NC(=O)[C@H](CC(N)=O)NC(=O)[C@H](CCC(=O)O)NC(=O)[C@H](CC(C)C)NC(=O)[C@H](CS)NC(=O)[C@H](Cc2c[nH]cn2)NC(=O)[C@H](CO)NC(=O)[C@@H](Cc2ccc(O)cc2)NC(=O)CSC[C@@H](C(=O)NCC(=O)N[C@@H](CO)C(=O)NCCC(=O)NCCC(=O)N[C@@H](CCCNC(=N)N)C(=O)N[C@@H](CCCCNC(=O)c2ccc3c(c2)C(=O)OC32c3ccc(O)cc3Oc3cc(O)ccc32)C(N)=O)NC(=O)[C@H](CC(C)C)NC1=O", "note": "[CP6] ({CH2CO}-[dY]SHCLENFWLTILCGS[βAla][βAla]RK(5FAM)-NH2; thioether N-14)", "values": [{"measurement": "Transported C4F peptide", "setting": "[1]; [3]", "result": 0.37, "unit": "µmol·g/min"}, {"measurement": "Transported C4F peptide", "setting": "[1]; ATP 3 mM, without CP 1.66", "result": 0.29, "unit": "µmol·g/min"}, {"measurement": "Effect on ATP-dependent C4F peptide translocation", "setting": "[1]", "result": "completely blocked peptide translocation"}, {"measurement": "Effect on ATP occlusion, TmrA^EQB", "setting": "[2]", "result": "inhibited ATP occlusion"}]}, {"smiles": "CC(C)C[C@@H]1NC(=O)[C@H](Cc2ccccc2)NC(=O)CNC(=O)[C@H](CO)NC(=O)[C@H](Cc2ccccc2)NC(=O)[C@H](CC(=O)O)NC(=O)[C@@H]2CCCN2C(=O)[C@H]([C@@H](C)O)NC(=O)[C@@H](Cc2ccc(O)cc2)NC(=O)CSC[C@@H](C(=O)NCC(=O)N[C@@H](CO)C(=O)NCCC(=O)NCCC(=O)N[C@@H](CCCNC(=N)N)C(=O)N[C@@H](CCCCNC(=O)c2ccc3c(c2)C(=O)OC32c3ccc(O)cc3Oc3cc(O)ccc32)C(N)=O)NC(=O)[C@H](C)NC(=O)[C@H](CC(N)=O)NC(=O)[C@H](CCCNC(=N)N)NC(=O)[C@H](CC(C)C)NC(=O)[C@H](Cc2ccccc2)NC(=O)[C@H](C)NC1=O", "note": "[CP12] ({CH2CO}-[dY]TPDFSGFLAFLRNACGS[βAla][βAla]RK(5FAM)-NH2; thioether N-16)", "values": [{"measurement": "Transported C4F peptide", "setting": "[1]; [3]", "result": 0.41, "unit": "µmol·g/min"}, {"measurement": "Transported C4F peptide", "setting": "[1]; ATP 3 mM, without CP 1.66", "result": 0.41, "unit": "µmol·g/min"}, {"measurement": "Effect on ATP-dependent C4F peptide translocation", "setting": "[1]", "result": "completely blocked peptide translocation"}, {"measurement": "Effect on ATP occlusion, TmrA^EQB", "setting": "[2]", "result": "inhibited ATP occlusion"}]}, {"smiles": "CC[C@H](C)[C@@H]1NC(=O)[C@H](Cc2c[nH]c3ccccc23)NC(=O)[C@H](CC(N)=O)NC(=O)[C@H](C)NC(=O)[C@H](CO)NC(=O)[C@@H]2CCCN2C(=O)[C@H](CC(=O)O)NC(=O)[C@@H](Cc2ccc(O)cc2)NC(=O)CSC[C@@H](C(=O)NCC(=O)N[C@@H](CO)C(=O)NCCC(=O)NCCC(=O)N[C@@H](CCCNC(=N)N)C(=O)N[C@@H](CCCCNC(=O)c2ccc3c(c2)C(=O)OC32c3ccc(O)cc3Oc3cc(O)ccc32)C(N)=O)NC(=O)[C@H]([C@@H](C)O)NC(=O)[C@H](CC(C)C)NC(=O)[C@H](CC(C)C)NC(=O)[C@H](C(C)C)NC(=O)[C@H](CC(C)C)NC1=O", "note": "[CP13] ({CH2CO}-[dY]DPSANWILVLLTCGS[βAla][βAla]RK(5FAM)-NH2; thioether N-14; C-terminus assumed)", "values": [{"measurement": "Transported C4F peptide", "setting": "[1]; [3]", "result": 0.25, "unit": "µmol·g/min"}, {"measurement": "Transported C4F peptide", "setting": "[1]; ATP 3 mM, without CP 1.66", "result": 0.41, "unit": "µmol·g/min"}, {"measurement": "Effect on ATP-dependent C4F peptide translocation", "setting": "[1]", "result": "only caused a partial inhibition"}, {"measurement": "Effect on ATP occlusion, TmrA^EQB", "setting": "[2]", "result": "ATP is occluded in the presence or absence"}]}, {"smiles": "CC(C)[C@@H]1NC(=O)[C@H](Cc2ccccc2)NC(=O)[C@@H]2CCCN2C(=O)[C@H](CC(N)=O)NC(=O)[C@H](Cc2c[nH]c3ccccc23)NC(=O)[C@H](C(C)C)NC(=O)[C@H](Cc2ccc(O)cc2)NC(=O)[C@H](Cc2ccccc2)NC(=O)[C@@H](Cc2ccc(O)cc2)NC(=O)CSC[C@@H](C(=O)NCC(=O)N[C@@H](CO)C(=O)NCCC(=O)NCCC(=O)N[C@@H](CCCNC(=N)N)C(=O)N[C@@H](CCCCNC(=O)c2ccc3c(c2)C(=O)OC32c3ccc(O)cc3Oc3cc(O)ccc32)C(N)=O)NC(=O)[C@H](CCCCN)NC(=O)[C@H](Cc2ccccc2)NC1=O", "note": "[CP14] ({CH2CO}-[dY]FYVWNPFVFKCGS[βAla][βAla]RK(5FAM)-NH2; thioether N-12; C-terminus assumed)", "values": [{"measurement": "Transported C4F peptide", "setting": "[1]; [3]", "result": 0.15, "unit": "µmol·g/min"}, {"measurement": "Transported C4F peptide", "setting": "[1]; ATP 3 mM, without CP 1.66", "result": 0.41, "unit": "µmol·g/min"}, {"measurement": "Effect on ATP-dependent C4F peptide translocation", "setting": "[1]", "result": "only caused a partial inhibition"}, {"measurement": "Effect on ATP occlusion, TmrA^EQB", "setting": "[2]", "result": "ATP is occluded in the presence or absence"}]}]}
